Data published in patent US9747412B2, “Method for identifying activation of transferases” (HVIVO SERVICES LIMITED, priority 2010, dated 2017).

Tested on: epithelial cell line MCF10A
Assay: Global Kinase Activity Profiling (GKAP) of lysates of cells treated with EGF and kinase inhibitors
Format: cell-based, human
Details: for Decrease in the number of EGF-dependent kinase activities detected: MCF10A cells pre-treated 1 h with inhibitor (5 μM LY294002 or 10 μM U0126) before 100 ng/ml EGF for 10 min

Compound | Decrease in the number of EGF-dependent kinase activities detected | Number of kinase reactions that increased as a function of treatment (treatment with EGF (summary statement))
O=c1cc(N2CCOCC2)oc2c(-c3ccccc3)cccc12 [LY92004] | about 30% | –
N#CC(=C(/N)Sc1ccccc1N)/C(C#N)=C(\N)Sc1ccccc1N [U0126] | about 30% | –
EGF: recombinant human EGF (Peprotech AF-100-15), growth factor activating kinase pathways downstream of its receptor (NSDSECPLSHDGYCLHDGVCMYIEALDKYACNCVVGYIGERCQYRDLKWWELR; UniProt P01133 971-1023, looked up) | – | > 300
